IC50 data for 9 compounds are collected here from patent US20250179103A1, “6-OXODECAHYDROPYRROLO[1,2-A][1,5]DIAZOCINE AND 6-OXODECAHYDRO-4H-PYRROLO[2,1-D][1,5]THIAZOCINE DERIVATIVES AS STAT3 AND STAT6 MODULATORS FOR THE TREATMENT OF CANCER AND INFLAMMATORY CONDITIONS” (Recludix Pharma, Inc., priority 2022, published 2025).

Structures are written as SMILES.

For this experiment, the system named is pY641-STAT6 in Peripheral Blood Mononuclear Cells (PBMC). Briefly: MSD-pSTAT-PBMC Assay (pSTAT6, IL-4 stimulated). The class given is cell-based, Human. The note with it: Homo sapiens, compound 3 hrs, then 1 ng/mL IL-4 for 10 min. The method, boiled down: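 Phospho-STAT readout used MSD electrochemiluminescence with total STAT3 or STAT6 capture in lysates of cryopreserved human PBMCs. Cells had 3 h compound exposure before a 10 min cytokine pulse: IL-6 10 ng/mL for pSTAT3, IL-4 1 ng/mL for pSTAT6. IC50 came from background-subtracted, DMSO-normalised signal, with categories A≤100 nM up to D>3 μM.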

On to `Cc1ccc2[nH]nc(C(=O)N3CC[C@H]4CC[C@@H](C(=O)N5CC(c6cc[nH]c(=O)c6)CC56CC6)N4C(=O)[C@@H](NC(=O)c4ccc5ccc(C(F)(F)P(=O)(OCCSC(=O)C(C)(C)C)OCCSC(=O)C(C)(C)C)cc5c4)C3)c2c1` (stereo partly drawn) [Compound 432, S,S′-((((difluoro(7 (((5S,8S,10aR)-3-(5-methyl-1H-indazole-3-carbonyl)-6-oxo-8-(6-(2-oxo-1,2-dihydro-pyridin-4-yl)-4-azaspiro [2.4]heptane-4-carbonyl)dec-ahydropyrrolo [1,2a][1,5]diazocin-5-yl)carbamoyl)naphthalen-2-yl)methyl)phosphoryl)bis(oxy))bis (ethane-2,1-diyl))bis(2,2-dimethylpro-panethioate)], for which the IC50 was at most 100 nM.

Compound `Cc1ccc2onc(C(=O)N3CC[C@H]4CC[C@@H](C(=O)N5C[C@H](c6cc[nH]c(=O)c6)CC56CC6)N4C(=O)[C@@H](NC(=O)c4ccc5ccc(C(F)(F)P(=O)(OCCSC(=O)C(C)(C)C)OCCSC(=O)C(C)(C)C)cc5c4)C3)c2c1` [Compound 434, S,S′-((((difluoro(7 (((5S,8S,10aR)-3-(5-methylbenzo [d]isoxazole-3-carbonyl)-6-oxo-8-((S)-6-(2-oxo-1,2-dihydropyridin-4-yl)-4-azaspiro[2.4]heptane-4-carbonyl)decahydro-pyrrolo [1,2-a][1,5]diazocin-5-yl)carbamoyl)naphthalen-2-yl)methyl)phosphoryl)bis (oxy))bis (ethane-2,1-diyl)) bis(2,2-dimethyl-propanethioate)] yielded an IC50 of at most 100 nM.

On to `Cc1ccc2onc(C(=O)N3CC[C@H]4CC[C@@H](C(=O)N5C[C@@H](c6cc[nH]c(=O)c6)CC56CC6)N4C(=O)[C@@H](NC(=O)c4ccc5ccc(C(F)(F)P(=O)(OCCSC(=O)C(C)(C)C)OCCSC(=O)C(C)(C)C)cc5c4)C3)c2c1` [Compound 435, S,S′-((((difluoro(7 (((5S,8S,10aR)-3-(5-methylbenzo [d]isoxazole-3-carbonyl)-6-oxo-8-((R)-6-(2-oxo-1,2-dihydro-pyridin-4-yl)-4-azaspiro[2.4]heptane-4-carbonyl)decahydro-pyrrolo[1,2-a] [1,5]diazocin-5-yl)carbamoyl)naphthalen-2-yl)methyl)phosphoryl)bis(oxy))bis (ethane-2,1-diyl))bis(2,2-dimethyl-propanethioate)], for which the IC50 is at most 100 nM.

As for `Cc1ccc2onc(C(=O)N3CC[C@H]4CC[C@@H](C(=O)N5C[C@@H](c6ccn(C)c(=O)c6)CC56CC6)N4C(=O)[C@@H](NC(=O)c4ccc5ccc(C(F)(F)P(=O)(OCCSC(=O)C(C)(C)C)OCCSC(=O)C(C)(C)C)cc5c4)C3)c2c1` [Compound 436, S,S′-((((difluoro(7-(((5S,8S,10aR)-8-((R)-6-(1-methyl-2-oxo-1,2-dihydropyridin-4-yl)-4-azaspiro[2.4]heptane-4-carbonyl)-3-(5-methylbenzo [d]isoxazole-3-carbonyl)-6-oxodeca-hydropyrrolo [1,2-a][1,5]diazocin-5-yl)carbamoyl)naphthalen-2-yl)methyl)phosphoryl)bis (oxy))bis (ethane-2,1-diyl))bis(2,2-dimethyl-propanethioate)], the IC50 is at most 100 nM.

In the case of `Cc1ccc2onc(C(=O)N3CC[C@H]4CC[C@@H](C(=O)N5C[C@H](c6ccn(C)c(=O)c6)CC56CC6)N4C(=O)[C@@H](NC(=O)c4ccc5ccc(C(F)(F)P(=O)(OCCSC(=O)C(C)(C)C)OCCSC(=O)C(C)(C)C)cc5c4)C3)c2c1` [Compound 437, S,S′-((((difluoro(7 (((5S,8S,10aR)-8-((S)-6-(1-methyl-2-oxo-1,2-dihydropyridin-4-yl)-4-azaspiro[2.4]heptane-4-carbonyl)-3-(5-methylbenzo [d]isoxazole-3-carbonyl)-6-oxodeca-hydropyrrolo [1,2-a][1,5]diazocin-5-yl)carbamoyl)naphthalen-2-yl)methyl)phosphoryl)bis (oxy))bis (ethane-2,1-diyl))bis(2,2-dimethyl-propanethioate)], the IC50 was at most 100 nM.

Turning to `Cc1ccc2onc(C(=O)N3CC[C@H]4CC[C@@H](C(=O)N5C[C@H](c6ccn(C)c(=O)c6)CC56CC6)N4C(=O)[C@@H](NC(=O)c4ccc5ccc(C(F)(F)P(=O)(OCCSC(=O)CC(C)C)OCCSC(=O)CC(C)C)cc5c4)C3)c2c1` [Compound 438, S,S′-((((difluoro(7 (((5S,8S,10aR)-8-((S)-6-(1-methyl-2-oxo-1,2-dihydropyridin-4-yl)-4-azaspiro[2.4]heptane-4-carbonyl)-3-(5-methylbenzo [d]isoxazole-3-carbonyl)-6-oxodeca-hydropyrrolo [1,2-a][1,5]diazocin-5-yl)carbamoyl)naphthalen-2-yl)methyl)phosphoryl)bis (oxy))bis (ethane-2,1-diyl))bis(3-methylbutane thioate)], the IC50 was at most 100 nM.

Turning to `CCCC(=O)SCCOP(=O)(OCCSC(=O)CCC)C(F)(F)c1ccc2ccc(C(=O)N[C@H]3CN(C(=O)c4noc5ccc(C)cc45)CC[C@H]4CC[C@@H](C(=O)N5C[C@H](c6ccn(C)c(=O)c6)CC56CC6)N4C3=O)cc2c1` [Compound 439, S,S′-((((difluoro(7 (((5S,8S,10aR)-8-((S)-6-(1-methyl-2-oxo-1,2-dihydropyridin-4-yl)-4-azaspiro[2.4]heptane-4-carbonyl)-3-(5-methylbenzo [d]isoxazole-3-carbonyl)-6-oxodeca-hydropyrrolo [1,2-a][1,5]diazocin-5-yl)carbamoyl)naphthalen-2-yl)methyl)phosphoryl)bis (oxy))bis (ethane-2,1-diyl)) dibutanethioate], the IC50 was at most 100 nM.

On to `CCCOC(=O)[C@H](C)NP(=O)(Oc1ccccc1)C(F)c1ccc2ccc(C(=O)N[C@H]3CN(C(=O)c4noc5ccc(C)cc45)CC[C@H]4CC[C@@H](C(=O)N5C[C@@H](C)O[C@@H](C)C5)N4C3=O)cc2c1` (stereo partly drawn) [Compound 440, propyl (((7-(((5S,8S,10aR)-8-((2R,6S)-2,6-dimethyl-morpholine-4-carbonyl)-3-(5-methylbenzo [d]isoxazole-3-carbonyl)-6-oxodeca-hydropyrrolo [1,2-a][1,5]diazocin-5-yl)carbamoyl)naphthalen-2-yl)fluoromethyl) (phenoxy)phosphoryl)-L-alaninate], for which the IC50 is at most 100 nM.

`CCCOC(=O)[C@H](C)NP(=O)(Oc1ccccc1)C(F)c1ccc2sc(C(=O)N[C@H]3CN(CC(F)F)CC[C@H]4CC[C@@H](C(=O)N5C[C@@H](C#N)[C@H](c6ccccc6)C5)N4C3=O)cc2c1` (stereo partly drawn) [Compound 441] registered an IC50 of at most 100 nM.
